Consider three compounds from patent publication US9637459B2, “Sodium and calcium salts of dihydroquinazoline derivative and use thereof as antiviral agents” (AiCuris GmbH & Co. KG, priority 2012, dated 2017).

In brackets after ≈: the same amount, converted by molar mass. Where two headings read alike, the source gives them in different places.

Data set [1] in a line: Solubility measurement of saturated solution in phosphate buffer (HPLC). In kind it is physicochemical. The method, then: In order to determine the solubility, a saturated solution of the salt from Example 2 was prepared in phosphate buffer at pH 7.0 and shaken at room temperature for 2 hours. The suspensions obtained were filtered by means of a syringe filter (0.45 μm pore diameter) and after being diluted the clear solutions were measured by HPLC. Pure phosphate buffer was used as the blank sample. The solubility was calculated in terms of the absorption of a reference solution of the amorphous zwitterion in phosphate buffer.

Data set [2] concerns HCMV AD169 RV-HG. As to the kind of experiment: HCMV fluorescence-reduction test (GFP-RA) in NHDF cells. In kind it is cell-based, human cytomegalovirus. To be noted: read-out: EC50 (GFP-RA). As for the experimental part:
The in vitro effects of the compositions according to the present invention on the replication of the HCMV (human cytomegalovirus) can be seen in the following antiviral assay:
HCMV Fluorescence-Reduction Test.
The test compositions are used as a 50-millimolar (mM) solution in dimethyl sulphoxide (DMSO). Ganciclovir®, Foscarnet® or Cidofovir® can be used as reference compositions. One day before the beginning of the test, 1.5×10^4 human foreskin fibroblasts (NHDF cells)/well are seeded in 200 μl of cell culture medium in Wells B2-G11 of 96-well plates (black with transparent floor). The wells along the edges of each 96-well plate are filled with 200 μl of medium only in order to prevent edge effects. On the day of the test the cell culture medium in Wells B2-G11 of each 96-well plate is vacuumed off by a suction device and replaced with 100 μl of virus suspension (multiplicity of infection (MOI): 0.1-0.2). The virus used is a recombinant HCMV which has integrated an expression cassette for green fluorescence protein (GFP) in the virus genome (HCMV AD 169 RV-HG [E. M. Borst, K. Wagner, A. Binz, B. Sodeik, and M. Messerle, 2008, J. Virol. 82:2065-2078.]). After an incubation time of 2 h at 37° C. and 5% CO2, the virus inoculate is vacuumed off by a suction device and all wells, with the exception of the wells in Column 3, are filled with 200 μl of cell culture medium. Column 2 is not treated further and serves as a virus control. The wells in Column 3 are each filled with 300 μl of test substance (diluted in cell culture medium) for duplicate analysis. The concentration of the respective antiviral substance in Column 3 is ˜27 times as concentrated as the respective anticipated EC50 value. […] The GFP intensity of each well in a 96-well plate is then determined using a fluorescence scanner (FluoBox; Bayer Technology Services GmbH; filter settings: GFP, […], Em 520 nm). The measured values thus obtained can be used to determine the EC50 of an anti-HCMV: […]

The mark [3] stands for this setting: Human betaherpesvirus 5, AD169, NHDF, 168 h.

One may read the EC50 as the concentration that produces a half-maximal response. By solubility is commonly meant the concentration that dissolves in the medium under given conditions. Lower therefore signals a poorly soluble substance.

In the case of `COc1cccc(N2CCN(C3=Nc4c(F)cccc4[C@H](CC(=O)[O-])N3c3cc(C(F)(F)F)ccc3OC)CC2)c1.O.O.O.[Na+]` [Example 2, 3-hydrate of the monosodium salt of (S)-{8-fluoro-2-[4-(3-methoxyphenyl)piperazine-1-yl]-3-[2-methoxy-5-(trifluoromethyl)phenyl]-3,4-dihydroquinazoline-4-yl}acetic acid], in data set [1] (pH 7), the Solubility in buffer was >91700 µg/mL. Moreover, in data set [2] (virus strain AD169 RV-HG, human foreskin fibroblasts (NHDF cells), 7 days incubation, 50% reduction of GFP fluorescence), the EC50 amounted to 3.9 nM.
In data set [1] (aqueous buffer, thermodynamic from solid, phosphate buffer pH 7.0, room temperature, shaken 2 hours, filtered 0.45 μm, HPLC), `COc1cccc(N2CCN(C3=Nc4c(F)cccc4[C@H](CC(=O)O)N3c3cc(C(F)(F)F)ccc3OC)CC2)c1` [Example 6A, (S)-{8-fluoro-2-[4-(3-methoxyphenyl)piperazine-1-yl]-3-(2-methoxy-5-trifluoromethyl-phenyl)-3,4-dihydroquinazoline-4-yl}acetic acid] gave a solubility at 2 h of 400 µg/mL (≈ 699 µM). Besides, the half-maximal effective concentration (EC50) in data set [2] (setting [3]) was 3.4 nM.
For `Nc1nc(O)c2ncn(COC(CO)CO)c2n1` [Ganciclovir, reference compound], the EC50 in data set [2] (setting [3]) turned out to be 2200 nM.
